Reference: patent publication US9174994B2, “Enhanced treatment regimens using mTor inhibitors” (INTELLIKINE LLC, priority 2011, dated 2015)

Test: Phase I clinical trial: treatment-emergent adverse events (patients, n (%)), dose limiting toxicity, MTD
Assay type: in vivo
Procedure: Safety, maximum tolerated dose (MTD), pharmacokinetics (PK) and preliminary antitumor activity were evaluated.
Pharmacodynamic (PD) endpoints were evaluated in surrogate (peripheral blood cells [PBCs], skin) and tumor tissues for the phosphorylation of TORC1-dependent markers (4EBP1/S6), and TORC2-dependent markers (AKT/PRAS40).

## CC(C)n1nc(-c2ccc3oc(N)nc3c2)c2c(N)ncnc21 [compound A]
6 mg/3 W, QDx3d QW (N = 3)
  Rash macular: 0 (0%)
  Urinary tract infection: 0 (0%)
  Vomiting: 1 (33%)
6 mg/3 W, QDx3d QW (N = 3), 2nd Asthenia line
  Asthenia: 0 (0%)
6 mg/day (N = 7)
  Anaemia: 0 (0%)
  Asthenia: 2 (29%)
  Blood creatinine increased: 1 (14%)
  Coagulopathy: 0 (0%)
  Confusional state: 0 (0%)
  Cough: 0 (0%)
  Decreased appetite: 1 (14%)
  Dehydration: 0 (0%)
  Diarrhoea: 5 (71%)
  Dizziness: 0 (0%)
  Dry mouth: 0 (0%)
  Dry skin: 0 (0%)
  Dysgeusia: 1 (14%)
  Dyspepsia: 0 (0%)
  Dyspnoea: 0 (0%)
  Dyspnoea exertional: 0 (0%)
  Eye infection: 1 (14%)
  Fatigue: 1 (14%)
  Gastritis: 0 (0%)
  Gravitational oedema: 0 (0%)
  Hypercholesterolaemia: 3 (43%)
  Hyperglycaemia: 7 (100%)
  Hypocalcaemia: 0 (0%)
  Insomnia: 1 (14%)
  Lymphopenia: 0 (0%)
  Mucosal inflammation: 2 (29%)
  Muscle spasms: 1 (14%)
  Nausea: 3 (43%)
  Orthostatic hypotension: 0 (0%)
  Panniculitis: 0 (0%)
  Patients Reporting at Least One Related TEAE: 7 (100%)
  Polyuria: 0 (0%)
  Pruritus: 5 (71%)
  Rash: 5 (71%)
  Skin discolouration: 0 (0%)
  Skin exfoliation: 0 (0%)
  Thrombocytopenia: 0 (0%)
  Vomiting: 3 (43%)
  Weight decreased: 0 (0%)
7 mg/5 W, QDx5d QW (N = 3)
  Diarrhoea: 1 (33%)
  Patients Reporting at Least One Related TEAE: 1 (33%)
  Rash: 1 (33%)
  Urine tract infection: 0 (0%)
  Vomiting: 0 (0%)
7 mg/5 W, QDx5d QW (N = 3), 1st Nausea line
  Nausea: 0 (0%)
7 mg/5 W, QDx5d QW (N = 3), 2nd Nausea line
  Nausea: 1 (33%)
7 mg/day (N = 8)
  Anaemia: 2 (25%)
  Asthenia: 4 (50%)
  Blood creatinine increased: 4 (50%)
  Coagulopathy: 1 (13%)
  Confusional state: 1 (13%)
  Cough: 1 (13%)
  Decreased appetite: 3 (38%)
  Dehydration: 2 (25%)
  Diarrhoea: 3 (38%)
  Dizziness: 1 (13%)
  Dry mouth: 3 (38%)
  Dry skin: 1 (13%)
  Dysgeusia: 2 (25%)
  Dyspepsia: 0 (0%)
  Dyspnoea: 1 (13%)
  Dyspnoea exertional: 0 (0%)
  Eye infection: 0 (0%)
  Fatigue: 2 (25%)
  Gastritis: 1 (13%)
  Gravitational oedema: 1 (13%)
  Hypercholesterolaemia: 1 (13%)
  Hyperglycaemia: 8 (100%)
  Hypocalcaemia: 1 (13%)
  Insomnia: 0 (0%)
  Lymphopenia: 2 (25%)
  Mucosal inflammation: 4 (50%)
  Muscle spasms: 0 (0%)
  Nausea: 3 (38%)
  Orthostatic hypotension: 1 (13%)
  Panniculitis: 1 (13%)
  Patients Reporting at Least One Related TEAE: 8 (100%)
  Polyuria: 0 (0%)
  Pruritus: 2 (25%)
  Rash: 4 (50%)
  Skin discolouration: 1 (13%)
  Skin exfoliation: 1 (13%)
  Thrombocytopenia: 3 (38%)
  Vomiting: 3 (38%)
  Weight decreased: 1 (13%)
7 mg/week (N = 3)
  ASTHENIA: 0 (0%)
  ATHENIA: 0 (0%)
  Alanine aminotransferase increased: 1 (33%)
  Aspartate aminotransferase increased: 1 (33%)
  Asthenia: 0 (0%)
  Blood creatinine increased: 0 (0%)
  Blood triglycerides increased: 0 (0%)
  DIARRHEA: 0 (0%)
  Decreased appetite: 0 (0%)
  Diarrhoea: 1 (33%)
  Dysgeusia: 1 (33%)
  Dyspepsia: 0 (0%)
  HYPERGLYCEMIA: 0 (0%)
  Hyperglycaemia: 1 (33%)
  Lymphopenia: 1 (33%)
  Malaise: 0 (0%)
  Mucosal inflammation: 0 (0%)
  Muscle spasms: 0 (0%)
  Nausea: 1 (33%)
